Laboratory results from patent publication US7862842B2, “Use of cationic preservative in food products” (priority 2001, dated 2011).

Columns and labels:
[1] = tested on: Enterobacter aerogenes CECT 689; assay: minimum inhibitory concentration of LAE; type: cell-based; settings: Gram − Bacteria
[2] = tested on: Rhodotorula rubra CECT 1158; assay: minimum inhibitory concentration of LAE; type: cell-based; settings: Yeast
[3] = tested on: Alcaligenes faecalis ATCC 8750; assay: minimum inhibitory concentration of LAE; type: cell-based; settings: Gram − Bacteria
[4] = tested on: Chaetonium globosum ATCC 6205; assay: minimum inhibitory concentration of LAE; type: cell-based; settings: Fungi
[5] = tested on: Proteus mirabilis CECT 170; assay: minimum inhibitory concentration of LAE; type: cell-based; settings: Gram − Bacteria
[6] = tested on: Salmonella typhimurium ATCC 16028; assay: minimum inhibitory concentration of LAE; type: cell-based; settings: Gram − Bacteria
[7] = tested on: Bacillus subtilis ATCC 6633; assay: minimum inhibitory concentration of LAE; type: cell-based; settings: Gram + Bacteria
Enterobacteria [8] = assay: microbiological evolution in veal stew; type: cell-based; settings: LAE 100 ppm, 10° C.
Protocol: (§1) The determination of the microbiological population is carried out according to the ISO standards.
(§2) The samples are treated by dilution in buffer peptone with the appropriate neutralising agent of the preservative. The culture media used for counting the microorganisms are: Soya triptone agar (32-35° C., 48 hours) for the determination of mesophilic bacteria; Sabouraud agar with chloramfenicol (25° C., 3-5 days) for fungi and yeast; Violet red bile glucose agar (32-35° C., 24 hours) for enterobacteria; Soya triptone agar (17° C., 5 days) for psychrotrophic bacteria.
(§3) The sample LAE was added to at a concentration of 100 ppm and its microbiological evolution at 10° C. was compared against a control.

Aerobe Bacteria [9] = assay: microbiological evolution in veal stew; type: cell-based; settings: LAE 100 ppm, 10° C.
Protocol: as §1, §2, §3

Mould & yeast [10] = assay: microbiological evolution in veal stew; type: cell-based; settings: LAE 100 ppm, 10° C.
Protocol: as §1, §2, §3

[11] = tested on: Lactobacillus delbrueckii ssp lactis CECT 372; assay: minimum inhibitory concentration of LAE; type: cell-based; settings: Gram + Bacteria
[12] = tested on: Arthrobacter oxydans ATCC 8010; assay: minimum inhibitory concentration of LAE; type: cell-based; settings: Gram + Bacteria
Aerobe Bacteria [13] = assay: microbiological evolution in fairy cakes; type: cell-based; settings: LAE 80 ppm, 25° C.
Protocol: as §1, §2
(§4) The sample LAE was added to at a concentration of 80 ppm and its microbiological evolution at 25° C. was compared against a control.

Mould & yeast [14] = assay: microbiological evolution in fairy cakes; type: cell-based; settings: LAE 80 ppm, 25° C.
Protocol: as §1, §2, §4

[15] = tested on: Listeria monocytogenes ATCC 7644; assay: minimum inhibitory concentration of LAE; type: cell-based; settings: Gram + Bacteria
[16] = tested on: Clostridium perfringens ATCC 77454; type: cell-based; settings: Gram + Bacteria
[17] = tested on: Pseudomonas aeruginosa ATCC 9027; assay: minimum inhibitory concentration of LAE; type: cell-based; settings: Gram − Bacteria
Aerobe Bacteria [18] = assay: microbiological evolution in a blackberry juice; type: cell-based; settings: LAE 60 ppm, 34° C.
Protocol: as §1, §2
(§5) The sample LAE was added to at a concentration of 60 ppm and its microbiological evolution at 34° C. was compared against a control.

Mould & yeast [19] = assay: microbiological evolution in a blackberry juice; type: cell-based; settings: LAE 60 ppm, 34° C.
Protocol: as §1, §2, §5

[20] = tested on: Escherichia coli ATCC 8739; assay: minimum inhibitory concentration of LAE; type: cell-based; settings: Gram − Bacteria
metabolism in rats = type: in vivo
[21] = tested on: Penicillium chrysogenum CECT 2802; assay: minimum inhibitory concentration of LAE; type: cell-based; settings: Fungi
[22] = tested on: Mycobacterium phlei ATCC 41423; assay: minimum inhibitory concentration of LAE; type: cell-based; settings: listed under Gram − Bacteria
[23] = tested on: Candida albicans ATCC 10231; assay: minimum inhibitory concentration of LAE; type: cell-based; settings: Yeast
[24] = tested on: Penicillium funiculosum CECT 2914; assay: minimum inhibitory concentration of LAE; type: cell-based; settings: Fungi
Aerobe Bacteria [25] = assay: microbiological evolution in custard; type: cell-based; settings: LAE 100 ppm, 25° C.
Protocol: as §1, §2
(§6) The sample LAE was added to at a concentration of 100 ppm and its microbiological evolution at 25° C. was compared against a control.

Anaerobe Bacteria = assay: microbiological evolution in custard; type: cell-based; settings: LAE 100 ppm, 25° C.
Protocol: as §1, §2, §6

[26] = tested on: Leuconostoc mesenteroides CETC 912; assay: minimum inhibitory concentration of LAE; type: cell-based; settings: Gram + Bacteria
[27] = tested on: Staphylococcus aureus ATCC 6538; assay: minimum inhibitory concentration of LAE; type: cell-based; settings: Gram + Bacteria
[28] = tested on: Micrococcus luteus ATCC 9631; assay: minimum inhibitory concentration of LAE; type: cell-based; settings: Gram + Bacteria
[29] = tested on: Bordetella bronchiseptica ATCC 4617; assay: minimum inhibitory concentration of LAE; type: cell-based; settings: Gram − Bacteria
Aerobe Bacteria [30] = assay: microbiological evolution in semi-preserved codfish in oil; type: cell-based; settings: LAE 100 ppm, 4° C.
Protocol: as §1, §2
(§7) The sample LAE was added to the oil assayed at a concentration of 100 ppm and its microbiological evolution at 4° C. was compared against a control.

Mould & yeast [31] = assay: as above; type: cell-based; settings: LAE 100 ppm, 4° C.
Protocol: as §1, §2, §7

[32] = tested on: Gliocadium virens ATCC 4645; assay: minimum inhibitory concentration of LAE; type: cell-based; settings: Fungi
Enterobacteria [33] = assay: microbiological evolution in ketchup; type: cell-based; settings: LAE 100 ppm, 25° C.
Protocol: as §1, §2, §6

Aerobe Bacteria [34] = assay: microbiological evolution in ketchup; type: cell-based; settings: LAE 100 ppm, 25° C.
Protocol: as §1, §2, §6

Mould & yeast [35] = assay: microbiological evolution in ketchup; type: cell-based; settings: LAE 100 ppm, 25° C.
Protocol: as §1, §2, §6

[36] = tested on: Bacillus cereus var mycoide ATCC 11778; assay: minimum inhibitory concentration of LAE; type: cell-based; settings: Gram + Bacteria
Aerobe Bacteria [37] = assay: evolution of bacteria in a chicken product; type: cell-based; settings: LAE 150 ppm, 10° C.
Protocol: as §1, §2
(§8) The sample LAE was added to at a concentration of 150 ppm and the evolution of aerobe and psychrotrophic bacteria at 10° C. was compared against a control.

Psychro. Bacteria = assay: evolution of bacteria in a chicken product; type: cell-based; settings: LAE 150 ppm, 10° C.
Protocol: as §1, §2, §8

[38] = tested on: Aureobasidium pullulans ATCC 9348; assay: minimum inhibitory concentration of LAE; type: cell-based; settings: Fungi
Aerobe Bacteria [39] = assay: microbiological evolution in a carbonated orange beverage; type: cell-based; settings: LAE 100 ppm, 17° C.
Protocol: as §1, §2
(§9) The sample LAE was added to at a concentration of 100 ppm and its microbiological evolution at 17° C. was compared against a control.

Mould & yeast [40] = assay: as above; type: cell-based; settings: LAE 100 ppm, 17° C.
Protocol: as §1, §2, §9

[41] = tested on: Aspergillus niger ATCC14604; assay: minimum inhibitory concentration of LAE; type: cell-based; settings: Fungi
[42] = tested on: Serratia marcenses CECT 274; assay: minimum inhibitory concentration of LAE; type: cell-based; settings: Gram − Bacteria
toxicological studies = type: in vivo; settings: animals and humans
[43] = tested on: Citrobacter freundii ATCC 22636; assay: minimum inhibitory concentration of LAE; type: cell-based; settings: Gram − Bacteria
[44] = tested on: Saccharomyces cerevisiae ATCC 9763; assay: minimum inhibitory concentration of LAE; type: cell-based; settings: Yeast
[45] = tested on: Klebsiella pneumoniae var pneumoniae CECT 178; assay: minimum inhibitory concentration of LAE; type: cell-based; settings: Gram − Bacteria
Escherichia coli 0157H7 = assay: minimum inhibitory concentration of LAE; type: cell-based; settings: Gram − Bacteria

Compound: CCCCCCCCCCCC(=O)N[C@@H](CCCN=C(N)N)C(=O)OCC.Cl [LAE, ethyl ester of the lauramide of the arginine monohydrochloride]
- M.I.C. [1]: 32 ppm
- M.I.C. [2]: 16 ppm
- M.I.C. [3]: 64 ppm
- M.I.C. [4]: 16 ppm
- M.I.C. [5]: 32 ppm
- M.I.C. [6]: 32 ppm
- M.I.C. [7]: 16 ppm
- Enterobacteria count (Enterobacteria [8]; 0 days): <10 cfu/g
- Enterobacteria count (Enterobacteria [8]; 14 days): <10 cfu/g
- Aerobe Bacteria count (Aerobe Bacteria [9]; 0 days): <10 cfu/g
- Aerobe Bacteria count (Aerobe Bacteria [9]; 14 days): <10 cfu/g
- Mould & yeast count (Mould & yeast [10]; 0 days): <10 cfu/g
- Mould & yeast count (Mould & yeast [10]; 14 days): <10 cfu/g
- M.I.C. [11]: 16 ppm
- M.I.C. [12]: 64 ppm
- Aerobe Bacteria count (Aerobe Bacteria [13]; 0 months): <10 cfu/g
- Aerobe Bacteria count (Aerobe Bacteria [13]; 3 months): 1.1 · 10^2 cfu/g
- Mould & yeast count (Mould & yeast [14]; 0 months): <10 cfu/g
- Mould & yeast count (Mould & yeast [14]; 3 months): <10 cfu/g
- M.I.C. [15]: 10 ppm
- M.I.C. [16]: 16 ppm
- M.I.C. [17]: 64 ppm
- Aerobe Bacteria count (Aerobe Bacteria [18]; 0 days): 4.0 · 10^2 cfu/g
- Aerobe Bacteria count (Aerobe Bacteria [18]; 14 days): 2.4 · 10^3 cfu/g
- Mould & yeast count (Mould & yeast [19]; 0 days): <10 cfu/g
- Mould & yeast count (Mould & yeast [19]; 14 days): <10 cfu/g
- M.I.C. [20]: 32 ppm
- absorption and metabolism (metabolism in rats): fast absorption and metabolisation into naturally-occurring amino acids and the fatty acid lauric acid
- M.I.C. [21]: 128 ppm
- M.I.C. [22]: 2 ppm
- M.I.C. [23]: 16 ppm
- M.I.C. [24]: 16 ppm
- Aerobe Bacteria count (Aerobe Bacteria [25]; 0 days): <10 cfu/g
- Aerobe Bacteria count (Aerobe Bacteria [25]; 5 days): 1.1 · 10^3 cfu/g
- Anaerobe Bacteria count (Anaerobe Bacteria; 0 days): <10 cfu/g
- Anaerobe Bacteria count (Anaerobe Bacteria; 5 days): 4.1 · 10^2 cfu/g
- M.I.C. [26]: 32 ppm
- M.I.C. [27]: 32 ppm
- M.I.C. [28]: 128 ppm
- M.I.C. [29]: 128 ppm
- Aerobe Bacteria count (Aerobe Bacteria [30]; 0 days): 7.6 · 10^3 cfu/g
- Aerobe Bacteria count (Aerobe Bacteria [30]; 14 days): 1.0 · 10^4 cfu/g
- Aerobe Bacteria count (Aerobe Bacteria [30]; 43 days): 8.5 · 10^4 cfu/g
- Mould & yeast count (Mould & yeast [31]; 0 days): 3.0 · 10^2 cfu/g
- Mould & yeast count (Mould & yeast [31]; 14 days): 5.4 · 10^3 cfu/g
- Mould & yeast count (Mould & yeast [31]; 43 days): 8.2 · 10^3 cfu/g
- M.I.C. [32]: 32 ppm
- Enterobacteria count (Enterobacteria [33]; 0 days): <10 cfu/g
- Enterobacteria count (Enterobacteria [33]; 14 days): <10 cfu/g
- Aerobe Bacteria count (Aerobe Bacteria [34]; 0 days): <10 cfu/g
- Aerobe Bacteria count (Aerobe Bacteria [34]; 14 days): 2.2 · 10^3 cfu/g
- Mould & yeast count (Mould & yeast [35]; 0 days): <10 cfu/g
- Mould & yeast count (Mould & yeast [35]; 14 days): 1.4 · 10^1 cfu/g
- M.I.C. [36]: 32 ppm
- Aerobe Bacteria count (Aerobe Bacteria [37]; 0 days): 1.2 · 10^5 cfu/g
- Aerobe Bacteria count (Aerobe Bacteria [37]; 14 days): 4.2 · 10^5 cfu/g
- Aerobe Bacteria count (Aerobe Bacteria [37]; 43 days): 6.1 · 10^5 cfu/g
- Psychro. Bacteria count (Psychro. Bacteria; 0 days): 3.0 · 10^4 cfu/g
- Psychro. Bacteria count (Psychro. Bacteria; 14 days): 7.1 · 10^4 cfu/g
- Psychro. Bacteria count (Psychro. Bacteria; 43 days): 6.8 · 10^4 cfu/g
- M.I.C. [38]: 16 ppm
- Aerobe Bacteria count (Aerobe Bacteria [39]; 0 days): 4.3 · 10^2 cfu/g
- Aerobe Bacteria count (Aerobe Bacteria [39]; 14 days): 1.0 · 10^2 cfu/g
- Mould & yeast count (Mould & yeast [40]; 0 days): <10 cfu/g
- Mould & yeast count (Mould & yeast [40]; 14 days): <10 cfu/g
- M.I.C. [41]: 32 ppm
- M.I.C. [42]: 32 ppm
- toxicity (toxicological studies): completely harmless to animals and humans
- M.I.C. [43]: 64 ppm
- M.I.C. [44]: 32 ppm
- M.I.C. [45]: 32 ppm
- M.I.C. (Escherichia coli 0157H7): 20 ppm
